The values below come from patent US8999935B2, “Treatment of osteoporosis in peri- and post-menopausal women with hepcidin” (New York University, priority 2009, dated 2015).

Data set [1] has as its system MCF-7 cells. The data set is described as follows: VEGF formation in MCF-7 cell cultures. The note with it: 24-hr treatment. Format: cell-based. An excerpt:
Due to the deficit of appropriate animal models that recapitulate estrogen and iron conditions in vivo, and the inherent difficulty of eliminating confounding variables with study in human subjects, applicants developed two cell culture models to test whether increase in body iron contributes to menopausal symptoms and diseases (FIG. 4). The concentration of 17β-estradiol (E2) were set at levels equivalent to breast tissue levels under pre-menopausal conditions (Parl F. F., “Estrogens, Estrogen Receptor and Breast Cancer,” Oxford: IOS Press, (2000), which is hereby incorporated by reference in its entirety). Ferritin levels were equal to 10% serum, given that the physiological upper limit of serum ferritin is 200 ng/ml. Twenty ng/ml of ferritin was used in the culture media. Transferrin was added in its wholly unsaturated form (apo-transferrin), or its fully 100% iron saturated (holo-transferrin), at 5 μg/ml, to the pre- and post-menopausal conditions, respectively. Serum-free alpha minimum essential medium (α-MEM) was used as the base medium for breast cancer MCF-7 cells, osteoblast progenitor C2C12 cells, and osteoclast progenitor Raw 264.7 cells. MCF-7 was supplemented with selenium (5 ng/ml) and insulin (5 μg/ml). C2C12 and Raw 264.7 cells were supplemented with bone morphorgenetic protein-2 (BMP-2) and receptor activator of nuclear factor kappa B ligand (RANKL) to stimulate their differentiation and maturation to ostoeblasts and osteoclasts, respectively. Epilife® basal medium was used for the culture of primary normal human epidermal keratinocytes (NHEK) cells.
E2, transferrin, and ferritin were analyzed separately in MCF-7 cell cultures to determine their relative contribution to alterations in VEGF levels.

For data set [2], the system named is mouse osteoblast C2C12 cells. The data set is described as follows: Alkaline phosphatase (osteoblast differentiation) in C2C12 cells. Format: cell-based. Here is the method: FIGS. 18A-F show differences in alkaline phosphates (ALP) activities in mouse osteoblast C2C12 cells grown in medium only (FIG. 18A), with bone morphorgenetic protein-2 (BMP-2) (FIG. 18B), under the pre-menopausal (FIG. 18C), post-menopausal (FIG. 18D), with ferritin (FIG. 18E), and with deferoxamine (DFO) (FIG. 18F). DFO, an iron chelator, (10 μM) or ferritin alone (20 ng/mL) was used in the presence of BMP-2 at 50 ng/ml.
Due to the deficit of appropriate animal models that recapitulate estrogen and iron conditions in vivo, and the inherent difficulty of eliminating confounding variables with study in human subjects, applicants developed two cell culture models to test whether increase in body iron contributes to menopausal symptoms and diseases (FIG. 4). The concentration of 17β-estradiol (E2) were set at levels equivalent to breast tissue levels under pre-menopausal conditions (Parl F. F., “Estrogens, Estrogen Receptor and Breast Cancer,” Oxford: IOS Press, (2000), which is hereby incorporated by reference in its entirety). Ferritin levels were equal to 10% serum, given that the physiological upper limit of serum ferritin is 200 ng/ml. […]
To investigate whether increased iron levels affect the balance between bone formation and bone resorption, mouse osteoblasts C2C12 and osteoclasts Raw 264.7 cells were cultured in the two distinct media. […] Cell proliferation was then measured.

Data set [3] relates to C2C12 cells. The data set is described as follows: C2C12 cell proliferation. The note with it: 3 and 5 days. Format: cell-based, mouse. The method, then:
To investigate whether increased iron levels affect the balance between bone formation and bone resorption, mouse osteoblasts C2C12 and osteoclasts Raw 264.7 cells were cultured in the two distinct media. […] In other experiments, the iron chelator deferoxamine (DFO), promoted alkaline phosphatase production, whereas ferritin diminished it. […] To further search how increased iron affect osteoblasts, C2C12 cells were grown in the presence of E2 or iron over a period of 3 and 5 days. Cell proliferation was then measured.

Data set [4] can be described thus: Effects of hepcidin on mice: serum iron and transferrin saturation after 8 weeks of i.p. treatment. Format: in vivo. Conditions: 1.5 mg/kg i.p. twice a week for 8 weeks, versus control mice or mice treated with DFO. The method, then:
Human body has many ways to absorb, transfer, and store iron but has no effective ways to excrete it (Andrews N. C., “Disorders of Iron Metabolism,” N Engl J Med 341:1986-95 (1999), which is hereby incorporated by reference in its entirety). Menstruation, which can get rid of iron in young premenopausal women, is not optional in older postmenopausal women. Therefore, hepcidin and deferoxamine (DFO), a FDA-approved iron chelator, were tested to see whether hepcidin or DFO can inhibit iron absorption and decrease body iron levels. After overnight fasting, mice were injected intra-peritoneally (i.p.), twice a week, with hepcidin at 1.5 mg/kg, DFO at 400 mg/kg, or saline (control) with 10 mice per group. After 8 weeks consecutive treatment, mice were sacrificed and blood were collected by heart puncture. Serum samples were used for measurements of serum iron and transferrin saturation.

The conditions of data set [5]: mice, single 50 μg intraperitoneal injection, for 3 days; cited from earlier work.
The subject of data set [6] is CYP1A1. The data set is described as follows: CYP1A1 mRNA induction in MCF-12A cells. Format: cell-based, human. Conditions: ferritin at as little as 10 ng/ml. The text has this:
(§1) It was also investigated whether increased iron as a result of menopause affects estrogen metabolisms. It is known that 95% of serum E2 in premenopausal women is derived from ovarian secretion and subsequently distributed through the bloodstream in an endocrine fashion. Almost all of the circulating E2 in postmenopausal women is from extragonadal conversion of C19 steroid precursors, principally weak adrenal androgens (FIG. 26). The conversion occurs locally in tissues such as adipose and bone marrow and E2 acts in a paracrine fashion. […] The first step in the metabolism of estrogens is the hydroxylation catalyzed by cytochrome P450 enzymes such as CYP1A1 and CYP1B1, leading to the formation of 2-hydroxyl-E2 (2-OH-E2) and 4-OH-E2, respectively (Tsuchiya et al., “Cytochrome P450-mediated Metabolism of Estrogens and Its Regulation In Humans,” Cancer Leu 227, 115-24 (2005), which is hereby incorporated by reference in its entirety).

Data set [7] concerns CYP1B1. The data set can be described thus: CYP1B1 mRNA induction in MCF-12A cells. Format: cell-based, human. Conditions: ferritin at as little as 10 ng/ml.
Excerpt: as §1

For data set [8], the system named is CYP19A1. The data set is described as follows: CYP19A1 mRNA induction in MCF-12A cells. Format: cell-based, human. The note with it: ferritin at as little as 10 ng/ml.
Excerpt: as §1

As for `C[C@]12CC[C@@H]3c4ccc(O)cc4CC[C@H]3[C@@H]1CC[C@@H]2O` [E2, 17β-estradiol], the VEGF formation result in data set [1] (various concentrations) is “some increase”. Besides, the “osteoblast differentiation, as measured by alkaline phosphates activity” value in data set [2] (C2C12 cells) was “slightly stimulated”. In addition, the cell proliferation entry in data set [3] is given as “did not increase”.

In the case of “hepcidin: peptide hormone, principal regulator of iron homeostasis; binds ferroportin (DTHFPICIFCCGCCHRSKCGMCCKT; listed as Homo sapiens)”, in data set [4], the “levels of serum iron” value is given as “significantly lower” and the transferrin saturation entry is given as “significantly lower”.

“transferrin: iron transport protein with two binding sites for iron, tested at different iron saturation”: the VEGF formation entry in data set [1] (transferrin 5 μg/ml at various iron saturation levels) was “no effect”.

As for “Asp-Thr-His-Phe-Pro-Ile-Cys-Ile-Phe-Cys-Cys-Gly-Cys-Cys-His-Arg-Ser-Lys-Cys-Gly-Met-Cys-Cys-Lys-Thr (DTHFPICIFCCGCCHRSKCGMCCKT; listed as Homo sapiens) [human hepcidin]”, in data set [5], the “fall in serum iron” value is recorded as 70%.

With ferritin, in data set [1] (various concentrations), the VEGF formation result is “significantly decreases”. In data set [2] (C2C12 cells with BMP-2 at 50 ng/ml, DFO 10 μM, ferritin 20 ng/mL), the alkaline phosphatase production entry is recorded as “diminished”. Moreover, the “CYP1A1 mRNA levels” value in data set [6] is listed as “significantly increased”. Also, in data set [7], the “CYP1B1 mRNA levels” value was “significantly increased”. In data set [8], the “CYP19A1 mRNA levels” value is “not”.

Consider “apo-transferrin: transferrin in its wholly unsaturated form, without iron in it”, for which, in data set [1] (various concentrations), the VEGF formation result is listed as “no effect”.
